The source of these data is patent US20210038559A1, “CANNABINOIDS AND DERIVATIVES FOR PROMOTING IMMUNOGENICITY OF TUMOR AND INFECTED CELLS” (priority 2018, published 2021).

The assay has as its system MHC-I expression by COLO 205 cells. Nature of the assay: cells. The assay is classed as cell-based, human. To be noted: for fold induction at 35 µM: Homo sapiens, COLO 205, 48 h, read-out: Induction Fold. The protocol:
A panel of synthetic cannabinoids (Cayman Chemical, #9002891) was tested for MHC class I-inducing capability in COLO 205 cells as described above. COLO 205 cells were treated with the compounds at a concentration of 35 μM and evaluated for cell surface MHC class I expression after 48 hours. Cells were harvested, stained with MHC-I mAb W6/32 (Thermo Fisher). MHC-I expression was determined by flow cytometry.

Where [1] appears, read: MHC-I expression, COLO 205 cells, compounds at 35 μM, 48 hours, flow cytometry (W6/32).

Like-named read-outs stand apart in the source and are kept apart here.

With `CCCCCn1cc(C(=O)c2cccc3ccc(Cl)cc23)c2ccccc21` [Example 146, (7-chloronaphthalen-1-yl)(1-pentyl-1H-indol-3-yl)methanone], the fold induction at 35 µM under setting [1] was 2.16. Regarding “(1-heptyl-5-phenyl-1H-pyrrol-3-yl)-1-naphthalenyl-methanone [Example 212]”, the “Induction Fold” value is on record as 1.83 Fold. As for `O=C(NC12CC3CC(CC(C3)C1)C2)c1nn(CCCCCF)c2ccccc12` [Example 309, N-((3s,5s,7s)-adamantan-1-yl)-1-(5-fluoropentyl)-1H-indazole-3-carboxamide], the “Induction Fold” value under setting [1] is on record as 1.37 Fold.

`CN1CCCCC(Cn2cc(C(=O)c3cccc4ccccc34)c3ccccc32)C1` (stereo not shown) [Example 6, (1-((1-methylazepan-3-yl)methyl)-1H-indol-3-yl)(naphthalen-1-yl)methanone]: the fold induction at 35 µM under setting [1] was 5.6.

Consider `C/C(=C\C(=O)c1cn(CCN2CCOCC2)c2ccccc12)C(C)(C)C` [Example 132, (E)-3,4,4-trimethyl-1-(1-(2-morpholinoethyl)-1H-indol-3-yl)pent-2-en-1-one], for which the fold induction at 35 µM under setting [1] was determined as 2.25. As to `CCCCCn1cc(C(=O)c2c(OC)ccc3ccccc23)c2ccccc21` [Example 90, (2-methoxy-1-naphthalenyl)(1-pentyl-1H-indol-3-yl)-methanone], the fold induction at 35 µM under setting [1] is 2.5.

As to `O=C(NCC1CC1)c1cn(CCCCCF)c2ccccc12` [Example 357, N-(cyclopropylmethyl)-1-(5-fluoropentyl)-1H-indole-3-carboxamide], the fold induction at 35 µM under setting [1] was 1.03. For `O=C(Oc1cccc2cnccc12)c1cn(CCCCCF)c2ccccc12` [Example 105, isoquinolin-5-yl 1-(5-fluoropentyl)-1H-indole-3-carboxylate], the fold induction at 35 µM under setting [1] stood at 2.4. With `CCCCCCCCC(C)(C)c1ccc([C@H]2CCC[C@@H](O)C2)c(O)c1` (relative stereo) [Example 374, cis-5-(1,1-dimethylnonyl)-2-(3-hydroxycyclohexyl)-phenol], the fold induction at 35 µM under setting [1] turned out to be 0.49. In the case of `CCCCCn1cc(C(=O)NC23CC4CC(CC(C4)C2)C3)c(=O)c2cc(C(C)C)ccc21` [Example 364, 1,4-dihydro-6-(1-methylethyl)-4-oxo-1-pentyl-N-tricyclo[3.3.1.1^3, 7]dec-1-yl-3-quinolinecarboxamide], the fold induction at 35 µM under setting [1] came to 0.89.

In the case of `CCCCCCC(C)(C)c1cc(OC)c(C2C=C(CO)C3CC2C3(C)C)c(OC)c1` (stereo not shown) [Example 304, 4-[4-(1,1-dimethylheptyl)-2,6-dimethoxyphenyl]-6,6-dimethyl-bicyclo[3.1.1]hept-2-ene-2-methanol], the fold induction at 35 µM worked out at 1.39. With `COC(=O)[C@@H](NC(=O)c1nn(Cc2ccc(F)cc2)c2ccccc12)C(C)(C)C` [Example 46, N-[[1-[(4-fluorophenyl)methyl]-1H-indazol-3-yl]carbonyl]-3-methyl-1-valine, methyl ester], the “Induction Fold” value under setting [1] amounted to 3.02 Fold. On to `CC(C)[C@H](NC(=O)c1cn(Cc2ccc(F)cc2)c2ccccc12)C(N)=O` [Example 237, N-[(1S)-1-(aminocarbonyl)-2-methylpropyl]-1-[(4-fluorophenyl)methyl]-1H-indole-3-carboxamide], for which the fold induction at 35 µM under setting [1] amounted to 1.7. For `CCc1ccc(C(=O)c2cn(CCCCCF)c3ccccc23)c2ccccc12` [Example 216, (4-ethyl-1-naphthalenyl)[1-(5-fluoropentyl)-1H-indol-3-yl]-methanone], the fold induction at 35 µM under setting [1] came to 1.79. Turning to `CCCCCCC(C)(C)c1ccc([C@H]2C[C@@H](O)CC[C@@H]2CCCO)c(O)c1` [Example 365, 2-((1S,2S,5S)-5-hydroxy-2-(3-hydroxypropyl)cyclohexyl)-5-(2-methyloctan-2-yl)phenol], the fold induction at 35 µM under setting [1] is 0.89. `O=C(Oc1ccc2cccnc2c1)c1cn(CC2CCCCC2)c2ccccc12` [Example 47, quinolin-7-yl 1-(cyclohexylmethyl)-1H-indole-3-carboxylate]: the fold induction at 35 µM under setting [1] was determined as 3.01. Turning to `CC(C)(NC(=O)c1cn(CCCCCF)c2ccccc12)c1ccccc1` [Example 356, 1-(5-fluoropentyl)-N-(1-methyl-1-phenylethyl)-1H-indole-3-carboxamide], under setting [1], the fold induction at 35 µM was 1.03. As to `CCCCCn1cc(C(=O)c2cccc3cccc(Cl)c23)c2ccccc21` [Example 50, (8-chloronaphthalen-1-yl)(1-pentyl-1H-indol-3-yl)methanone], the fold induction at 35 µM under setting [1] turned out to be 3. As for `CC1=CC[C@@H]2[C@@H](C1)c1c(O)cc(C(C)(C)c3ccccc3)cc1OC2(C)C` [Example 367, 6aR,7,10,10aR-tetrahydro-6,6,9-trimethyl-3-(1-methyl-1-phenylethyl)-6H-dibenzo[b,d]pyran-1-ol], under setting [1], the “Induction Fold” value came to 0.87 Fold.

As for `CCCCCn1c(C(=O)c2cccc3ccccc23)nc2ccccc21` [Example 123, naphthalen-1-yl(1-pentyl-1H-benzo[d]imidazol-2-yl)methanone], the fold induction at 35 µM under setting [1] was 2.31.

As for `CCCCCn1cc(C(=O)NC(C(N)=O)C(C)(C)C)c2ccccc21` (stereo not shown) [Example 88, N-(1-amino-3,3-dimethyl-1-oxobutan-2-yl)-1-pentyl-1H-indole-3-carboxamide], the fold induction at 35 µM under setting [1] was determined as 2.5. As to `CCCCCn1cc(C(=O)c2ccc(C)c3ccccc23)c2ccccc21` [Example 211, (4-methyl-1-naphthalenyl)(1-pentyl-1H-indol-3-yl)-methanone], under setting [1], the fold induction at 35 µM came to 1.83. For the molecule `CCC(F)CCn1cc(C(=O)Nc2cccc3ccccc23)c2ccccc21` (stereo not shown) [Example 338, 1-(3-fluoropentyl)-N-(naphthalen-1-yl)-1H-indole-3-carboxamide], the fold induction at 35 µM under setting [1] came to 1.19. With `CCCCCn1cc(C(=O)Cc2cccc(OC)c2)c2ccccc21` [Example 28, 2-(3-methoxyphenyl)-1-(1-pentyl-1H-indol-3-y1)-ethanone], the “Induction Fold” value is given as 3.42 Fold. With `CC(C)[C@H](NC(=O)c1nn(CCCCCF)c2ccccc12)C(N)=O` [Example 292, N-[(1S)-1-(aminocarbonyl)-2-methylpropyl]-1-(5-fluoropentyl)-1H-indazole-3-carboxamide], under setting [1], the fold induction at 35 µM was 1.43. As to `CCCC(C)n1cc(C(=O)c2ccc3ccccc3c2)c2ccccc21` (stereo not shown) [Example 362, naphthalen-2-yl(1-(pentan-2-yl)-1H-indol-3-yl)methanone], the fold induction at 35 µM under setting [1] turned out to be 0.95. With `O=C(c1ccc2c(c1)c1ccccc1n2CCCCCF)c1cccc2ccccc12` [Example 318, (9-(5-fluoropentyl)-9H-carbazol-3-yl)(naphthalen-1-yl)methanone], the fold induction at 35 µM under setting [1] amounted to 1.31. As for “[2-methyl-1-(1-methylhexyl)-1H-indol-3-yl]-1-naphthalenyl-methanone [Example 137]”, the “Induction Fold” value is 2.22 Fold. Take `CC(C)C(C)n1cc(C(=O)c2cccc3ccccc23)c2ccccc21` (stereo not shown) [Example 70, (1-(3-methylbutan-2-yl)-1H-indol-3-yl)(naphthalen-1-yl)methanone]: the fold induction at 35 µM under setting [1] was determined as 2.7. In the case of `CCCCCn1nc(C(=O)NC(C(N)=O)C(C)(C)C)c2ccccc21` (stereo not shown) [Example 76, N-[1-(aminocarbonyl)-2,2-dimethylpropyl]-1-pentyl-1H-indazole-3-carboxamide], the fold induction at 35 µM under setting [1] stood at 2.61. Consider `CS(=O)(=O)O.Cc1c(C(=O)c2cccc3ccccc23)c2cccc3c2n1C(CN1CCOCC1)CO3` (stereo not shown) [Example 376, [2,3-dihydro-5-methyl-3-(4-morpholinylmethyl)pyrrolo[1,2,3-de]-1,4-benzoxazin-6-yl]-1-naphthalenyl-methanone, methanesulfonate], for which the “Induction Fold” value is given as 0.32 Fold. With `CCCCCn1cc(C(=O)Oc2cncc3ccccc23)c2ccccc21` [Example 52, isoquinolin-4-yl 1-pentyl-1H-indole-3-carboxylate], the fold induction at 35 µM under setting [1] was 2.98. Consider `CN(C)C(=O)n1nnc(Cc2ccc(-c3ccccc3)cc2)n1` [Example 278, 5-([1,1′-biphenyl]-4-ylmethyl)-N,N-dimethyl-2H-tetrazole-2-carboxamide], for which, under setting [1], the fold induction at 35 µM came to 1.49. The same measure, in the same setting: to `O=C(c1cccc2ccccc12)c1cn(CCCC2CO2)c2ccccc12` (stereo not shown) [Example 156, naphthalen-1-yl(1-(3-(oxiran-2-yl)propyl)-1H-indol-3-yl)methanone] belongs 2.07. `CC(C)[C@H](NC(=O)c1nn(Cc2ccc(F)cc2)c2ccccc12)C(N)=O` [Example 172, N-[(1S)-1-(aminocarbonyl)-2-methylpropyl]-1-[(4-fluorophenyl)methyl]-1H-indazole-3-carboxamide]: the fold induction at 35 µM under setting [1] came to 1.99. Regarding `CCCCCn1cc(C(=O)c2cccc3cc(C)ccc23)c2ccccc21` [Example 240, (6-methylnaphthalen-1-yl)(1-pentyl-1H-indol-3-yl)methanone], under setting [1], the fold induction at 35 µM worked out at 1.69. Consider `CCCCCn1cc(C(=O)c2c(Cl)ccc3ccccc23)c2ccccc21` [Example 75, (2-chloronaphthalen-1-yl)(1-pentyl-1H-indol-3-yl)methanone], for which the fold induction at 35 µM under setting [1] is 2.65. Same read-out and setting: to `O=C(c1cccc(I)c1)c1cn(CCCCCF)c2ccccc12` [Example 130, (1-(5-fluoropentyl)-1H-indol-3-yl)(3-iodophenyl)methanone] belongs 2.26; to `CCC(CC)n1cc(C(=O)c2cccc3ccccc23)c2ccccc21` [Example 48, naphthalen-1-yl(1-(pentan-3-yl)-1H-indol-3-yl)methanone], 3. The same measure, in the same setting: then `CC(C)(C)Cn1cc(C(=O)c2cccc3ccccc23)c2ccccc21` [Example 49, naphthalen-1-yl(1-neopentyl-1H-indol-3-yl)-methanone], with 3.
